The supplement of paper PMC10307832

Assays:
Experiment in all cases: relative viability (nuclei count vs DMSO), 5 days (fraction); higher = more cells survive
[1] = compound: CC(C)C[C@H](NC(=O)[C@H](Cc1ccccc1)NC(=O)c1cnccn1)B(O)O [Bortezomib] + Cc1nc(NC(=O)N2CCC[C@H]2C(N)=O)sc1-c1ccnc(C(C)(C)C(F)(F)F)c1 [Alpelisib] (partner 2 µM)
How it was run: (§1)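 The day after seeding in 1536-well plates, lung cancer cell lines were treated by pin tool with a single drug, or with a fixed anchor-drug dose together with five library-drug doses (not always all listed) in √10 steps. After 5 days, a combined fix-and-stain solution (final 0.05% Triton X-100, 1% formaldehyde, 1 ug/ml Hoechst) was added. Nuclei counted on 4× images gave relative viability as treated counts over vehicle counts, reported as the median of duplicate plates.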

[2] = compound: CC(C)C[C@H](NC(=O)[C@H](Cc1ccccc1)NC(=O)c1cnccn1)B(O)O [Bortezomib] + CC(=O)c1c(C)c2cnc(Nc3ccc(N4CCNCC4)cn3)nc2n(C2CCCC2)c1=O [Palbociclib] (partner 0.5 µM)
How it was run: as §1

[3] = compound: COC1=CC(c2cc3ccccc3[nH]2)=N/C1=C\c1[nH]c(C)cc1C [Obatoclax] + N=C(N)NC(=N)NCCc1ccccc1 [Phenformin] (partner 250 µM)
How it was run: as §1

[4] = compound: CC1=CC(=NN1)NC2=CC(=NC(=N2)/C=C/C3=CC=CC=C3)N4CCN(CC4)C + CS(=O)(=O)CCNCc1ccc(-c2ccc3ncnc(Nc4ccc(OCc5cccc(F)c5)c(Cl)c4)c3c2)o1 [Lapatinib] (partner 2 µM)
How it was run: as §1

| Cell Line | relative viability ([1]; first compound 0.0002 µM) | relative viability ([1]; first compound 0.000632 µM) | relative viability ([1]; first compound 0.002 µM) | relative viability ([1]; first compound 0.006325 µM) | relative viability ([1]; first compound 0.02 µM) | relative viability ([2]; first compound 0.0002 µM) | relative viability ([2]; first compound 0.000632 µM) | relative viability ([2]; first compound 0.002 µM) | relative viability ([2]; first compound 0.006325 µM) | relative viability ([2]; first compound 0.02 µM) | relative viability ([3]; first compound 0.01 µM) | relative viability ([3]; first compound 0.03162 µM) | relative viability ([3]; first compound 0.1 µM) | relative viability ([3]; first compound 0.3162 µM) | relative viability ([3]; first compound 1 µM) | relative viability ([4]; first compound 0.08 µM) | relative viability ([4]; first compound 0.253 µM) | relative viability ([4]; first compound 0.8 µM) | relative viability ([4]; first compound 2.53 µM) | relative viability ([4]; first compound 8 µM) |
| --- | --- | --- | --- | --- | --- | --- | --- | --- | --- | --- | --- | --- | --- | --- | --- | --- | --- | --- | --- | --- |
| EKVX | 0.94 | 0.934 | 0.932 | 0.733 | 0.0816 | 0.361 | 0.401 | 0.28 | 0.171 | 0.079 | 0.257 | 0.218 | 0.141 | 0.232 | 0.231 | 0.191 | 0.216 | 0.226 | 0.136 | 0.0912 |
| EMC-BAC-2 | 0.657 | 0.73 | 0.788 | 0.17 | 0.117 | 0.524 | 0.484 | 0.466 | 0.285 | 0.205 | 0.478 | 0.526 | 0.398 | 0.466 | 0.371 | 0.905 | 0.923 | 0.811 | 0.689 | 0.136 |
| HARA | 0.808 | 0.673 | 0.949 | 0.0583 | 0.0865 | 0.185 | 0.253 | 0.288 | 0.166 | 0.152 | 0.427 | 0.432 | 0.463 | 0.455 | 0.357 | 0.776 | 0.874 | 0.611 | 0.163 | 0.158 |
| LU99A | 0.424 |  | 0.466 | 0.224 | 0.141 | 0.464 | 0.364 | 0.405 | 0.261 | 0.164 | 0.885 | 0.854 | 0.74 | 0.77 | 0.417 | 0.958 | 0.943 | 0.728 | 0.252 | 0.125 |
| LK-2 |  | 1.01 | 0.263 | 0.256 | 0.27 | 0.649 | 0.685 | 0.415 | 0.125 | 0.133 | 0.547 | 0.485 | 0.483 | 0.464 | 0.346 | 0.885 | 0.852 | 0.852 | 0.604 | 0.181 |
| NCI-H23 |  | 0.72 | 0.829 | 0.116 | 0.109 | 0.456 |  | 0.398 | 0.158 | 0.13 | 0.745 | 0.746 | 0.821 | 0.718 | 0.597 | 0.981 | 1.37 | 1 | 0.46 | 0.139 |
| NCI-H647 | 1.07 | 1.24 | 0.881 | 0.0394 | 0.0242 | 0.385 | 0.251 | 0.426 | 0.0189 | 0.0229 | 0.566 | 0.576 | 0.518 | 0.252 | 0.146 | 1.02 | 1.29 | 1.08 | 0.0749 | 0.0425 |
| 201T | 1.03 | 0.993 | 0.975 | 0.951 | 0.31 | 0.339 | 0.367 | 0.37 | 0.33 | 0.218 | 0.434 | 0.457 | 0.43 | 0.399 | 0.463 | 1.02 | 1.07 | 1.04 | 0.946 | 0.915 |
| NCI-H1734 | 0.706 | 0.732 | 0.612 | 0.154 | 0.113 | 0.38 | 0.342 | 0.266 | 0.108 | 0.0922 | 0.436 | 0.341 | 0.318 | 0.318 | 0.32 | 0.968 | 1.06 | 0.958 | 0.577 | 0.145 |
